# Reference: article PMC4823954, “From fighting depression to conquering tumors: a novel tricyclic thiazepine compound as a tubulin polymerization inhibitor” (Cell Death & Disease, 2016)
# What was measured:
# H460TaxR [1] = test: Cell viability assay (sulforhodamine B); type: cell-based, human; settings: for EC50: Homo sapiens, H460/TaxR
# Procedure: (§1) All biological reagents and solvents were obtained from commercial suppliers and used as recommended. The human NSCLC cell line H460 and P-gp-overexpressing drug-resistant cell line H460TaxR were cultured in RPMI-1640 medium supplemented with 10% fetal bovine serum, 100 units/ml penicillin and […] streptomycin. The NHFB cell line NHFB was cultured in DMEM with the same supplements. All cells were maintained in a 37 °C incubator with 95% humidity and 5% CO2.
# (§2) The cell viability was determined using the sulforhodamine B assay.[64] In brief, cells (4000 cells in 100 μl medium) were seeded in 96-well culture plates and incubated for 24 h. The cells were treated with the compounds or with an equal volume (0.1%) of DMSO for 72 h. The cell viability was calculated using the following formula: cell viability=Atreatment/Acontrol. The EC50 values were determined using the Sigma Plot 10.0 software package (Systat Software Inc., San Jose, CA, USA).
# H460 [2] = test: Cell viability assay (sulforhodamine B); type: cell-based, human; settings: H460 cells, 72 h
# Procedure: as §1, §2
# RET(V804L) = target: T1, RET(V804L) (Homo sapiens, UniProt P07949, V804L); test: KINOMEscan; type: binding; settings: read-out: % Ctrl
# T1 construct: purchased DiscoveRx KINOMEscan
# H460TaxR [3] = test: Mitochondrial membrane potential (JC-1); type: cell-based, human; settings: 2 μM, 12 h
# Procedure: (§3) The mitochondrial membrane potential was determined using JC-1 dye (Beyotime, Beijing, China). NSCLC cells (4 × 10^4 cells in 0.5 ml) were seeded in 24-well culture plates. […] Carbonyl cyanide m-chlorophenylhydrazone (CCCP; 10 μM), a mitochondrial membrane disrupter, was used to treat cells for 20 min as a positive control. Then, the cells were incubated with 200 μl JC-1 working solution at 37 °C for 20 min. After the cells were washed in RPMI-1640 medium, they were observed and imaged using a fluorescence microscope (Olympus IX71).
# H460 [4] = test: Mitochondrial membrane potential (JC-1); type: cell-based, human; settings: H460, 2 μM, 12 h
# Procedure: as §3
# H460 [5] = test: Apoptosis flow cytometry (PI/Annexin V-FITC); type: cell-based, human; settings: NSCLC cells (H460), 2 μM, 48 h
# EGFR(L747-T751del,Sins) = test: KINOMEscan; type: binding, human
# PIK3CA(Q546K) = target: T2, PIK3CA(Q546K) (Homo sapiens, UniProt P42336, Q546K); test: KINOMEscan; type: binding; settings: read-out: % Ctrl
# T2 construct: purchased DiscoveRx KINOMEscan
# [6] = target: T3, ABL1(Y253F)-phosphorylated (Homo sapiens, UniProt P00519, Y253F); test: KINOMEscan; type: binding; settings: read-out: % Ctrl
# T3 construct: purchased DiscoveRx KINOMEscan
# plasma protein binding = type: in vitro ADME
# Excerpt: As in vivo investigations are generally time consuming and expensive, it is advantageous to eliminate those compounds that are not suitable for animal experiments. One of the necessary steps is to screen the initial hits using assays testing their possible behaviors in vivo. To evaluate the drug-like properties of TBPT, a panel of in vitro assays was preformed (Table 1). The parallel artificial membrane permeability assay (PAMPA) was used to evaluate the cell permeability of the compounds. Compounds with a Pe >[…] are classified as highly permeable. […] The Caco-2 assay was used to predict the oral absorption values of the compounds in vivo. Compounds with a Caco-2 efflux ratio >2 may be subject to active efflux and should not be developed further. […] The half-life (T1/2) in human liver microsomes is used to predict the metabolism properties of compounds in vivo. […] A very long T1/2 (>24 h) increases the risk of cumulative toxicity and is not desirable. […] T1/2 in plasma indicates the stability of the drug in human blood; the high T1/2 values of these compounds indicated better stability in vivo. Plasma protein binding influences the distribution of drugs into body tissues, and compounds with high plasma protein binding (>99%) are limited in terms of the amount of free compound that are available to act on the targeted tissue. […]
# [7] = target: T4, ABL1(Q252H)-phosphorylated (Homo sapiens, UniProt P00519, Q252H); test: KINOMEscan; type: binding; settings: read-out: % Ctrl
# T4 construct: purchased DiscoveRx KINOMEscan
# [8] = toxicity in xenografted mice; settings: TBPT 30 or 60 mg/kg x5, PTX 10 mg/kg x4, i.v.
# Procedure: Five injections of vehicle and TBPT (30 or 60 mg/kg) were administered intravenously at days 1, 3, 5, 7 and 9 (arrows). Four injections of PTX (10 mg/kg) were administered intravenously at days 1, 3, 5 and 7. (a) The tumor volume was measured every other day. When the tumor volume in the solvent-treated group exceeded 1500 mm^3, the experiment was terminated. (b) Blood biochemical and hematological analyses. (c) The body weights of the mice were monitored every other day during the experiments. *P<0.05, Student's t-test with day 0, N=5
# Figure 3 Histopathological examination of the major organs from TBPT or PTX-treated mouse tumor at the end of the experiments. The cross-sections of organs were stained with hematoxylin–eosin. […] The scale bars represent 50 μm and are uniform in each column
# H460 and H460TaxR cells (5 × 10^6 cells in 100 μl PBS) were injected subcutaneously into the dorsal flank of each mouse. When the tumors reached volumes of 100 mm^3, the mice were divided randomly into four groups. The mice were treated every other day five times with intravenous injections of (1) vehicle (the solvent of TBPT: 60% PBS, 8% Cremophor EL, 8% EtOH, 12% poly propylene glycol and 12% PEG-400), (2) TBPT (30 mg/kg) or (3) TBPT (60 mg/kg). Another group was treated with PTX (10 mg/kg) every other day four times as the positive control. The tumor dimensions and body weights were measured every other day. The tumor volume was calculated according to a standard formula: volume=width^2 × length/2. The experiment was terminated and the mice were killed when the tumor volumes in the solvent-treated group exceeded 1500 mm^3. The mouse organs and blood were collected and used for hematoxylin–eosin staining and serum chemistry assay. TGI rates were assessed using the following formula: TGI=1− (Tt−T0)/(Ct−C0) × 100%. Tt and T0 indicate the tumor volumes of the treated group at days t and 0. Ct and C0 indicate the tumor volumes of the control group at days t and 0, respectively.
# [9] = target: T5, EGFR(L747-S752del, P753S) (Homo sapiens, UniProt P00533, DEL747-752/P753S); test: KINOMEscan; type: binding; settings: read-out: % Ctrl
# T5 construct: purchased DiscoveRx KINOMEscan
# EGFR(T790M) = target: T6, EGFR(T790M) (Homo sapiens, UniProt P00533, T790M); test: KINOMEscan; type: binding; settings: read-out: % Ctrl
# T6 construct: purchased DiscoveRx KINOMEscan
# caspases 8, 9 and 3/7 = test: Caspases activity assay in H460TaxR cells; type: cell-based, human; settings: 2 μM, 6, 12 and 24 h
# Procedure: The activities of caspases 8, 9, and 3/7 in H460TaxR and H460 cells were examined via a fluorescence-based assay using Caspase-Glo 8, Caspase-Glo 9 Assay kits and Apo-ONE Homogeneous Caspase-3/7 Assay Kit (Promega, Madison, WI, USA). Cells (1 × 10^6 cells in 10 ml medium) were seeded in 10-cm dishes. After 24 h, the cells were treated with TBPT (2 μM) or DMSO for 6, 12 and 24 h. Then, the cells were washed in PBS and collected. Cell lysates were prepared conventionally in RIPA lysis buffer. Protein concentrations were determined using the BCA protein assay. Equal amounts (10 μg) of total protein of samples were added to 96-well culture plates containing 100 μl caspases 8, 9 and 3/7 activity working solution. After the samples were incubated for 1 h at RT, the fluorescence of each well was determined at 499 nm with an emission wavelength of 521 nm using a multimode plate reader (Victor X2, Perkin Elmer, Boston, MA, USA). The fluorescence intensities are proportional to the activities of caspases 8, 9 and 3/7.
# T5 sequence (P00533 with tags, fused parts or gaps DEL747-752/P753S limits assumed): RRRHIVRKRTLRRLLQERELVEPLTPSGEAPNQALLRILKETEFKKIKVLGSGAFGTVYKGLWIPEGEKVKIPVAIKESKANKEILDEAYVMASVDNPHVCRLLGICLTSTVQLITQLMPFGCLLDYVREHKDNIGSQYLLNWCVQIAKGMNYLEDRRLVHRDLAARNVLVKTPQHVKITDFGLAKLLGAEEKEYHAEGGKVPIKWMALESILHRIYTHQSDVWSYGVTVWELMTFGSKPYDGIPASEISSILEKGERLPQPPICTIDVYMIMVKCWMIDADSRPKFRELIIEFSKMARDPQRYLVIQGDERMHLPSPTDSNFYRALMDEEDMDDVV
# T6 sequence (P00533 25-1210 T790M): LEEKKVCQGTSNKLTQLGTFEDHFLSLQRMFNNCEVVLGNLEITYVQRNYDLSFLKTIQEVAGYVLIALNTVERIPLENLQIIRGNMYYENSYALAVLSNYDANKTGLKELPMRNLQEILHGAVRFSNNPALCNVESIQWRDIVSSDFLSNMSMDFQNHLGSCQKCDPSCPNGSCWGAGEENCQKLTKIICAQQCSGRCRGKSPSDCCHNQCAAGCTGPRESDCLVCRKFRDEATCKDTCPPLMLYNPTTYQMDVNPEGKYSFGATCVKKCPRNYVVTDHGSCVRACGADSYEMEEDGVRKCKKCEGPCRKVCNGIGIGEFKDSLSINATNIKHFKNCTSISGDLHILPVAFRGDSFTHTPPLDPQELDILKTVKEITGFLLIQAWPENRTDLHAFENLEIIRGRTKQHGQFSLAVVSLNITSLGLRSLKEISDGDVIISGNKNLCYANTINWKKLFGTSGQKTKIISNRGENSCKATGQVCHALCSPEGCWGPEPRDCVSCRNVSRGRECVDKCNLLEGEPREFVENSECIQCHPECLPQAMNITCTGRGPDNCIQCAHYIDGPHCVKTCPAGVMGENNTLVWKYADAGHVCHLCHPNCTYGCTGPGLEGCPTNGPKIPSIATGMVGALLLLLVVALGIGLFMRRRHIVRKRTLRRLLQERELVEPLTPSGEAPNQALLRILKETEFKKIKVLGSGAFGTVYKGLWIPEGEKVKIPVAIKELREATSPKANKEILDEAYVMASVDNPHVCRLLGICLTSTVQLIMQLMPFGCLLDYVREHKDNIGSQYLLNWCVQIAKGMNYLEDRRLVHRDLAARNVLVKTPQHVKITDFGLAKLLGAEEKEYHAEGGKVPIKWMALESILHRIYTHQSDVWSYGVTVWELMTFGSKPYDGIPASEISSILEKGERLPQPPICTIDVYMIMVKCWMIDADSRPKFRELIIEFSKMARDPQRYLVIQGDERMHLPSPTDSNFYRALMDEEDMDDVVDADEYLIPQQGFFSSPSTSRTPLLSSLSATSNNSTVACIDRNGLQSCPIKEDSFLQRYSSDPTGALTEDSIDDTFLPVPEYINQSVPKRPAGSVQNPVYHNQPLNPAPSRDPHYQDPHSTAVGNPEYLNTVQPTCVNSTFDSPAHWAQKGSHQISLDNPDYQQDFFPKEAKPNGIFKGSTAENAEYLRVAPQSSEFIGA
# T2 sequence (P42336 whole entry Q546K): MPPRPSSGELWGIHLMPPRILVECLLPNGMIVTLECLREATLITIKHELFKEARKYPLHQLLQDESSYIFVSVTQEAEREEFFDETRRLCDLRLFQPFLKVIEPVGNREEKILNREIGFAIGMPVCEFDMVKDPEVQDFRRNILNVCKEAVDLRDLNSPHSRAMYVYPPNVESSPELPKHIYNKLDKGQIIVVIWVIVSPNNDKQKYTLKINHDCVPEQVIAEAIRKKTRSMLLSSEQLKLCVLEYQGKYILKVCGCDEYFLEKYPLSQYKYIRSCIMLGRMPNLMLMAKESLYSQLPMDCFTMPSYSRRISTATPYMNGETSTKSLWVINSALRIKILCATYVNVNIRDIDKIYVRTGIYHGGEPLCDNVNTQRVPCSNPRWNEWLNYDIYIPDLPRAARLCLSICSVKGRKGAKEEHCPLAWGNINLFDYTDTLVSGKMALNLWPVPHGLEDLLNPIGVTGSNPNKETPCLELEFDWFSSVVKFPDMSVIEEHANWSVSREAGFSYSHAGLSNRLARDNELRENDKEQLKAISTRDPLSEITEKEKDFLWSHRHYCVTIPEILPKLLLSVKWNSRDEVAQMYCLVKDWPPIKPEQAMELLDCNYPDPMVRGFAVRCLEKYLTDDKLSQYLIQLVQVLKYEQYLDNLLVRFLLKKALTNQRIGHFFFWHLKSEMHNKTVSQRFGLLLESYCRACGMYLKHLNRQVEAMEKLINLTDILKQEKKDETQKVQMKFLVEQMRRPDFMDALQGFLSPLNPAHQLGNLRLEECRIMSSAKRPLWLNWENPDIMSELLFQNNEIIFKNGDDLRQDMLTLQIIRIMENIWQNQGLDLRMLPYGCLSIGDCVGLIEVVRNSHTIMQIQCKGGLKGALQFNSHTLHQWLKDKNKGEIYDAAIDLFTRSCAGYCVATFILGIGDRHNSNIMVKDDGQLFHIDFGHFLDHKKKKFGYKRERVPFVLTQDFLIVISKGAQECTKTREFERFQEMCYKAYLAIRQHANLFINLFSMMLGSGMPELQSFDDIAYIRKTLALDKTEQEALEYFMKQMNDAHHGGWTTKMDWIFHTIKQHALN
# T1 sequence (P07949 29-1114 V804L): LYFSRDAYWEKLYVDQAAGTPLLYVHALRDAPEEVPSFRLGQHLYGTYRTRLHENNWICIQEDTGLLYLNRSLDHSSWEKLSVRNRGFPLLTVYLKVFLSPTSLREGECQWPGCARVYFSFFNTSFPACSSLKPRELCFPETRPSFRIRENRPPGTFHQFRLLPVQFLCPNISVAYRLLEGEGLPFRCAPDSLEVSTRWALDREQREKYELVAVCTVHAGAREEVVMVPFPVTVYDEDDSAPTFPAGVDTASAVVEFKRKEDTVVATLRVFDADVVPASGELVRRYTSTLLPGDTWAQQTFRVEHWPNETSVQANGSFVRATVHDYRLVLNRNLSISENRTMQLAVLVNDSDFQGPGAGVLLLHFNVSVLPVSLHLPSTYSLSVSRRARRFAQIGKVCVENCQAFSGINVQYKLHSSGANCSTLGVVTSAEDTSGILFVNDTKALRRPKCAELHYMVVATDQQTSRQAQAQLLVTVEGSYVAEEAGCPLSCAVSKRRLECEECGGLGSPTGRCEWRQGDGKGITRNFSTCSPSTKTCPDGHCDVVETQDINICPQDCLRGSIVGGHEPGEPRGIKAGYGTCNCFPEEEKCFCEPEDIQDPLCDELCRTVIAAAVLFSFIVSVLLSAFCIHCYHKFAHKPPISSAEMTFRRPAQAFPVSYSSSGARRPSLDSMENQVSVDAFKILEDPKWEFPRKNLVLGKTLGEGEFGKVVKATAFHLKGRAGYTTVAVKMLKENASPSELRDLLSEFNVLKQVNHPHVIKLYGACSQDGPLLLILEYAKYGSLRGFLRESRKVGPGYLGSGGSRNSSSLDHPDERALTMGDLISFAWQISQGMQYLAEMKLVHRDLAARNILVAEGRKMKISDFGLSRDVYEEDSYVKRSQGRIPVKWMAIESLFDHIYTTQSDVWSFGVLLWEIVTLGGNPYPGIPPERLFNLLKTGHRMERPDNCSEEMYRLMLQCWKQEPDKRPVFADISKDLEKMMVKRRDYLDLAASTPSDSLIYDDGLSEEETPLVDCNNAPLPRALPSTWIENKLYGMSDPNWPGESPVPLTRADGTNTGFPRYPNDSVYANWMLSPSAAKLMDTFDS
smiles,measurement,setting,value
"Cc1ccc(C2=Nc3cccnc3S(=O)(=O)c3ccccc32)cc1 [TBPT, 6-(p-tolyl)benzo[f] pyrido[2,3-b][1,4] thiazepine 11,11-dioxide]",Resistance Folds,H460TaxR [1]; EC50 in H460TaxR cells divided by EC50 in H460 cells,1.3
same,EC50,"H460TaxR [1]; 72 h, H460TaxR cells",< 500 nM
same,EC50,"H460TaxR [1]; H460TaxR(+Rev), Reversan (P-gp inhibitor)",610 ± 260 nM
same,EC50,H460 [2],450 ± 190 nM
same,EC50,"H460 [2]; Homo sapiens, NCI-H460, 72 h",< 500 nM
same,remaining binding at 5 µM,RET(V804L); 5 μM,100%
same,remaining binding at 10 µM,RET(V804L); 10 μM,86%
same,mitochondrial membrane potential,H460TaxR [3],decreased significantly
same,mitochondrial membrane potential,H460 [4],decreased significantly
same,cells in an apoptotic/necrotic state,H460 [5],approximately 50%
same,% Ctrl,"EGFR(L747-T751del,Sins); 5 μM",88%
same,% Ctrl,"EGFR(L747-T751del,Sins); 10 μM",98%
same,remaining binding at 5 µM,PIK3CA(Q546K); 5 μM,100%
same,remaining binding at 10 µM,PIK3CA(Q546K); 10 μM,94%
same,remaining binding at 5 µM,[6]; 5 μM,70%
same,remaining binding at 10 µM,[6]; 10 μM,95%
same,fraction unbound,plasma protein binding,0.0164
same,remaining binding at 5 µM,[7]; 5 μM,83%
same,remaining binding at 10 µM,[7]; 10 μM,100%
same,"toxicity to normal tissues (blood biochemical and hematological analyses, body weight, relative organ weights)",[8],did not exhibit evident toxicity to normal tissues
same,remaining binding at 5 µM,[9]; 5 μM,76%
same,remaining binding at 10 µM,[9]; 10 μM,91%
same,remaining binding at 5 µM,EGFR(T790M); 5 μM,100%
same,remaining binding at 10 µM,EGFR(T790M); 10 μM,96%
same,"activities of caspases 8, 9 and 3/7","caspases 8, 9 and 3/7","activated caspases 8, 9 and 3/7 in a time-dependent manner"
